Results as given in ChEMBL document CHEMBL3525969 (Drug Metab Dispos, 2011).

Experiments:
[1] = target: T1, CYP3A4 (Homo sapiens, UniProt P08684); experiment: Ratio of Kinact to Ki for CYP3A4 (unknown origin); assay type: ADME
[2] = target: T2, CYP3A5 (Homo sapiens, UniProt P20815); experiment: Inhibition of human His-tagged CYP3A5 expressed in Escherichia coli TOPP3 using BFC as substrate assessed as residual activity by fluorescence assay in presence of cytochrome b5; assay type: ADME; details: probe BFC
[3] = target: T3, Cytochrome P450 3A4 (Homo sapiens, UniProt P08684); experiment: Inhibition of His-tagged CYP3A4 (unknown origin) expressed in Escherichia coli TOPP3 using BFC as substrate after 15 mins by fluorescence assay in presence of NADPH; assay type: ADME; details: 0.25 h
[4] = target: T3, Cytochrome P450 3A4; experiment: Inhibition of His-tagged CYP3A4 (unknown origin) expressed in Escherichia coli TOPP3 using BFC as substrate after 15 mins by fluorescence assay in presence of NADPH and cytochrome b5; assay type: ADME; details: 0.25 h
[5] = Cmax in human; assay type: ADME, organism-based; details: in vivo
[6] = target: T4, Cytochrome P450 2B6 (Homo sapiens, UniProt P20813); experiment: Inhibition of human His-tagged CYP2B6 expressed in Escherichia coli TOPP3 using 7-ethoxy-4-(trifluoromethyl)coumarin as substrate after 15 mins by fluorescence assay in presence of NADPH; assay type: ADME; details: 0.25 h
T4 sequence (P20813 whole entry): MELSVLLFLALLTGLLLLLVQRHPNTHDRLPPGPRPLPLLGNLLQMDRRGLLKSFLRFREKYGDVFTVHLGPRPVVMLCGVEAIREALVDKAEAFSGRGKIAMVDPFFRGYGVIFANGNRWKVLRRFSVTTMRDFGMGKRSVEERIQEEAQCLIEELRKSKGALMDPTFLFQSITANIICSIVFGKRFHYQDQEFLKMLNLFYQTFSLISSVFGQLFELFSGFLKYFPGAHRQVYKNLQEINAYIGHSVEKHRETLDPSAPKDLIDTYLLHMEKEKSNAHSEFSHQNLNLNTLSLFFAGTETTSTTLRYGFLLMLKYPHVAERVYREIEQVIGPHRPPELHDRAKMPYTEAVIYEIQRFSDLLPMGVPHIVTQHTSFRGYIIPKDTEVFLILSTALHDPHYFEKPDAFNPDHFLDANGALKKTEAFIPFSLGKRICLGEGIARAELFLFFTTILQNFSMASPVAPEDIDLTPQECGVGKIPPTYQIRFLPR

[7] = target: T4, Cytochrome P450 2B6; experiment: Inhibition of human His-tagged CYP2B6 expressed in Escherichia coli TOPP3 using 7-ethoxy-4-(trifluoromethyl)coumarin as substrate after 15 mins by fluorescence assay in presence of NADPH and cytochrome b5; assay type: ADME; details: 0.25 h
[8] = target: T5, Cytochrome P450 2D6 (Homo sapiens, UniProt P10635); experiment: Inhibition of human His-tagged CYP2D6 expressed in Escherichia coli TOPP3 using 7-ethoxy-4-(trifluoromethyl)coumarin as substrate after 15 mins by fluorescence assay in presence of NADPH; assay type: ADME; details: 0.25 h
[9] = target: T5, Cytochrome P450 2D6; experiment: Inhibition of human His-tagged CYP2D6 expressed in Escherichia coli TOPP3 using 7-ethoxy-4-(trifluoromethyl)coumarin as substrate after 15 mins by fluorescence assay in presence of NADPH and cytochrome b5; assay type: ADME; details: 0.25 h
[10] = target: T6, Cytochrome P450 3A5 (Homo sapiens, UniProt P20815); experiment: Inhibition of human His-tagged CYP3A5 expressed in Escherichia coli TOPP3 using BFC as substrate after 15 mins by fluorescence assay in presence of NADPH; assay type: ADME; details: 0.25 h
[11] = target: T6, Cytochrome P450 3A5; experiment: Inhibition of human His-tagged CYP3A5 expressed in Escherichia coli TOPP3 using BFC as substrate after 15 mins by fluorescence assay in presence of NADPH and cytochrome b5; assay type: ADME; details: 0.25 h
[12] = target: T3, Cytochrome P450 3A4; experiment: Inhibition of human His-tagged CYP3A4 expressed in Escherichia coli TOPP3 using BFC as substrate after 15 mins by fluorescence assay in presence of NADPH and cytochrome b5; assay type: ADME; details: 0.25 h
[13] = target: T3, Cytochrome P450 3A4; experiment: Inhibition of human His-tagged CYP3A4 expressed in Escherichia coli TOPP3 using BFC as substrate at 10 to 100 uM by fluorescence assay in presence of NADPH and cytochrome b5; assay type: ADME; details: TDE = time-dependent effect
[14] = target: T1, CYP3A4; experiment: Inhibition of human His-tagged CYP3A4 expressed in Escherichia coli TOPP3 using BFC as substrate at 100 uM after 30 mins in presence of NADPH and cytochrome b5; assay type: ADME; details: probe BFC
[15] = target: T1, CYP3A4; experiment: Inhibition of human His-tagged CYP3A4 expressed in Escherichia coli TOPP3 using BFC as substrate at 100 uM after 30 mins by spectrophotometry in presence of NADPH and cytochrome b5 relative to control; assay type: ADME; details: probe BFC
[16] = target: T3, Cytochrome P450 3A4; experiment: Inhibition of human His-tagged CYP3A4 expressed in Escherichia coli TOPP3 using BFC as substrate assessed as unmodified heme at 100 uM after 30 mins by HPLC analysis in presence of NADPH and cytochrome b5; assay type: ADME; details: 0.5 h
[17] = target: T1, CYP3A4; experiment: Inhibition of human His-tagged CYP3A4 expressed in Escherichia coli TOPP3 using BFC as substrate assessed as residual activity by fluorescence assay in presence of cytochrome b5; assay type: ADME; details: probe BFC
[18] = target: T1, CYP3A4; experiment: Inhibition of human His-tagged CYP3A4 expressed in Escherichia coli TOPP3 using BFC as substrate assessed as residual activity after 10 mins by fluorescence assay in presence of NADPH and cytochrome b5 relative to control; assay type: ADME; details: probe BFC, read-out: Activity
[19] = target: T1, CYP3A4; experiment: Inhibition of human His-tagged CYP3A4 expressed in Escherichia coli TOPP3 using BFC as substrate assessed as residual activity after 20 mins by fluorescence assay in presence of NADPH and cytochrome b5 relative to control; assay type: ADME; details: probe BFC, read-out: Activity
[20] = target: T1, CYP3A4; experiment: Inhibition of human His-tagged CYP3A4 expressed in Escherichia coli TOPP3 using BFC as substrate assessed as residual activity after 30 mins by fluorescence assay in presence of NADPH and cytochrome b5 relative to control; assay type: ADME; details: probe BFC, read-out: Activity
[21] = target: T2, CYP3A5; experiment: Inhibition of human His-tagged CYP3A5 expressed in Escherichia coli TOPP3 using BFC as substrate assessed as residual activity after 10 mins by fluorescence assay in presence of NADPH and cytochrome b5 relative to control; assay type: ADME; details: probe BFC, read-out: Activity
[22] = target: T2, CYP3A5; experiment: Inhibition of human His-tagged CYP3A5 expressed in Escherichia coli TOPP3 using BFC as substrate assessed as residual activity after 20 mins by fluorescence assay in presence of NADPH and cytochrome b5 relative to control; assay type: ADME; details: probe BFC, read-out: Activity
[23] = target: T2, CYP3A5; experiment: Inhibition of human His-tagged CYP3A5 expressed in Escherichia coli TOPP3 using BFC as substrate assessed as residual activity after 30 mins by fluorescence assay in presence of NADPH and cytochrome b5 relative to control; assay type: ADME; details: probe BFC, read-out: Activity
[24] = target: T3, Cytochrome P450 3A4; experiment: Inhibition of human His-tagged CYP3A4 expressed in Escherichia coli TOPP3 using BFC as substrate at 100 uM after 30 mins by spectrophotometry in presence of cytochrome b5; assay type: ADME; details: 0.5 h

T1 sequence (P08684 whole entry): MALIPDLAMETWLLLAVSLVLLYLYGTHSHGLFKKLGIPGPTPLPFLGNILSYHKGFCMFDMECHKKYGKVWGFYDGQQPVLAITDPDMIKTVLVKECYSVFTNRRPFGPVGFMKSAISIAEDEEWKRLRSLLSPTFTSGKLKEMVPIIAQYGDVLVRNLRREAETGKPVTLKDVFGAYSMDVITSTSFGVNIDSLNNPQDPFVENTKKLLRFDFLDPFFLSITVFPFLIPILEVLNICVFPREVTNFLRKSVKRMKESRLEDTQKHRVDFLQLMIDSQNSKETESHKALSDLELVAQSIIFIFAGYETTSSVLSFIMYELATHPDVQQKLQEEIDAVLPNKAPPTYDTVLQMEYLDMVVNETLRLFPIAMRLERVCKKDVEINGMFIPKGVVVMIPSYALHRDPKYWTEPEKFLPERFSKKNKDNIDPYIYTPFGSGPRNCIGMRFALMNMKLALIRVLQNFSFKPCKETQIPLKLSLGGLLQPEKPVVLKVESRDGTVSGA
T3 sequence (P08684 whole entry): as above
T2 sequence (P20815 whole entry): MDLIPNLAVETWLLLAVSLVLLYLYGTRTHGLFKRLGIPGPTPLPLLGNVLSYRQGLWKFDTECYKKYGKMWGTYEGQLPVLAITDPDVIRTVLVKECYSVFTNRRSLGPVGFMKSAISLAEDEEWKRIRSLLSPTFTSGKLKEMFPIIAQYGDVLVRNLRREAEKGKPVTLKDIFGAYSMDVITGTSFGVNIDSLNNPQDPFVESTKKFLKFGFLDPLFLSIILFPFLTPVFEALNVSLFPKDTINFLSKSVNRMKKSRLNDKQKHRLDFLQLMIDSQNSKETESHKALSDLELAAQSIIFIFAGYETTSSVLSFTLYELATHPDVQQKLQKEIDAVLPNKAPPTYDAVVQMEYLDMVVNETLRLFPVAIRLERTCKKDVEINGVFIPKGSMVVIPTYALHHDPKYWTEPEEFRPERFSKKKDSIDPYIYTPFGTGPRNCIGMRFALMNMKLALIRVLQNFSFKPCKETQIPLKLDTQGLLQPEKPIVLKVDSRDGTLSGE
T5 sequence (P10635 whole entry): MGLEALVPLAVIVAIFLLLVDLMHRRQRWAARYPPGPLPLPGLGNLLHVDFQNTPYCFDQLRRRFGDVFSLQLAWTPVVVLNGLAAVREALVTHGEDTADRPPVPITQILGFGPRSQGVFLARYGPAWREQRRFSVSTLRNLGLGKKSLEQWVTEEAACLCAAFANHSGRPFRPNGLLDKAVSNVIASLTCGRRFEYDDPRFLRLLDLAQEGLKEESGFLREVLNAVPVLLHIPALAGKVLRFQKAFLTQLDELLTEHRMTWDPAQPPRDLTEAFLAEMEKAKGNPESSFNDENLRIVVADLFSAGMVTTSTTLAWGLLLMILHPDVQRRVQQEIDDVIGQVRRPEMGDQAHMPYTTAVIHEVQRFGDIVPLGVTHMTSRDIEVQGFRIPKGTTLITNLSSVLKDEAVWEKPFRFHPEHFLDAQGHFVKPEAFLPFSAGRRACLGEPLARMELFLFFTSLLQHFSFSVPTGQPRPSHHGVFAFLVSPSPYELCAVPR
T6 sequence (P20815 whole entry): as the sequence (P20815 whole entry) above

CC#C[C@]1(O)CC[C@H]2[C@@H]3CCC4=CC(=O)CCC4=C3[C@@H](c3ccc(N(C)C)cc3)C[C@@]21C [MIFEPRISTONE]
kinact/KI [1]: 333 M⁻¹ s⁻¹

O=C(Nc1ccc(OC(F)(F)F)cc1)c1sccc1NCc1ccnc2ccccc12 [OSI-930]
activity [2]: 100%
inhibition (INH) [3]: Active
inhibition (INH) [4]: Active
Cmax [5]: 1700 nM
inhibition (INH) [6]: Not Active
inhibition (INH) [7]: Not Active
inhibition (INH) [8]: Not Active
inhibition (INH) [9]: Not Active
inhibition (INH) [10]: Not Active
inhibition (INH) [11]: Not Active
inhibition (INH) [12]: Dose-dependent effect
inhibition (INH) [13]: tde
inhibition at 0.5 h, 100 µM [14]: 75%
inhibition at 0.5 h, 100 µM [15]: 70%
inhibition (INH) [16]: Active
activity [17]: 100%
activity at 10 min [18]: 71%
activity at 20 min [19]: 50%
activity at 0.5 h [20]: 39%
activity at 10 min [21]: 113%
activity at 20 min [22]: 109%
activity at 0.5 h [23]: 98%
inhibition (INH) [24]: Not Active

C#C[C@]1(O)CC[C@H]2[C@@H]3CCc4cc(O)ccc4[C@H]3CC[C@@]21C [ETHINYL ESTRADIOL]
kinact/KI [1]: 667 M⁻¹ s⁻¹

CC/C(=C(\c1ccccc1)c1ccc(OCCN(C)C)cc1)c1ccccc1 [TAMOXIFEN]
kinact/KI [1]: 333 M⁻¹ s⁻¹

CC(C)=CCC/C(C)=C/COc1c2ccoc2cc2oc(=O)ccc12 [BERGAMOTTIN]
kinact/KI [1]: 667 M⁻¹ s⁻¹
